Results reported in article PMC4447944 (The Journal of Biological Chemistry, 2015).

Assays:
[1] = test system: SMYD2-mediated methylation of p53 Lys370; test: Western blot for p53 Lys370me1, HEK293 cells co-transfected with FLAG-SMYD2 and FLAG-p53; assay type: cell-based; conditions: Homo sapiens, 0–2.5 μM, 28 h, read-out: IC50, decrease in p53 Lys370me1
Experimental: Cell lysates were subject to 10% SDS-PAGE and transferred to a PVDF membrane. Each membrane was blocked in Odyssey Blocking Buffer (LI-COR Biosciences) and incubated with monoclonal anti-p53 (D01) antibody (Abcam, ab1101) or rabbit anti-p53 Lys^370me1 antibody (a kind gift from Dr. Shelley Berger) followed by detection with IRDye®680RD goat anti-mouse IgG (LI-COR Biosciences) and IRDye800CW goat anti-rabbit IgG (LI-COR Biosciences) on the Odyssey Imager (LI-COR Biosciences). […] 4–8 h later, cells were treated with 0–25 μM compound for 15 h. […] 24 h later, cells were lysed with 200 μl of MSD Tris Lysis Buffer^TM (Meso Scale Discovery). A MULTI-ARRAY^TM 96-well plate (Meso Scale Discovery, catalog number L15XA-3) was precoated with 2 μg/ml custom-made methyl-p53 antibody (Lampire) in PBS overnight at 4 °C. 150 μl/well MSD Blocking Solution A^TM (final concentration of 3%) was added followed by shaking at room temperature for 1 h. The plate was washed three times with 1× MSD Tris Wash Buffer^TM (Meso Scale Discovery). 0.5 μg of cell lysate in 25 μl/well MSD Tris Lysis Buffer was added, followed by shaking overnight at 4 °C. […] Following a final wash three times with 1× MSD Tris Wash Buffer, 150 μl/well 1× MSD Read Buffer^TM (Meso Scale Discovery) was added, and plates were read on an MSD SECTOR^TM Imager 6000 instrument (Meso Scale Discovery).

hABL1(pT315I) = biological target: T1, hABL1(pT315I) (Homo sapiens, UniProt P00519, T315I); test: KINOMEscan; assay type: binding
T1 construct: purchased DiscoverX (KINOMEscan platform)

hALK = biological target: T2, hALK (Homo sapiens, UniProt Q9UM73); test: KINOMEscan; assay type: binding
T2 construct: purchased DiscoverX

hCAMK1 = biological target: T3, hCAMK1 (Homo sapiens, UniProt Q14012); test: KINOMEscan; assay type: binding
T3 construct: purchased DiscoverX

hCAMK1D = biological target: T4, hCAMK1D (Homo sapiens, UniProt Q8IU85); test: KINOMEscan; assay type: binding
T4 construct: purchased DiscoverX

hCSNK1G2 = biological target: T5, hCSNK1G2 (Homo sapiens, UniProt P78368); test: KINOMEscan; assay type: binding
T5 construct: purchased DiscoverX (KINOMEscan platform)

hCTK = biological target: T6, hCTK (Homo sapiens, UniProt P42679); test: KINOMEscan; assay type: binding
T6 construct: purchased DiscoverX (KINOMEscan platform)

hDRAK2 = biological target: T7, hDRAK2 (Homo sapiens, UniProt O94768); test: KINOMEscan; assay type: binding
T7 construct: purchased DiscoverX

hEPHA2 = biological target: T8, hEPHA2 (Homo sapiens, UniProt P29317); test: KINOMEscan; assay type: binding
T8 construct: purchased DiscoverX

hEPHA6 = biological target: T9, hEPHA6 (Homo sapiens, UniProt Q9UF33); test: KINOMEscan; assay type: binding
T9 construct: purchased DiscoverX

hERK1 = biological target: T10, hERK1 (Homo sapiens, UniProt P27361); test: KINOMEscan; assay type: binding
T10 construct: purchased DiscoverX

hERK4 = biological target: T11, hERK4 (Homo sapiens, UniProt P31152); test: KINOMEscan; assay type: binding
T11 construct: purchased DiscoverX

hFLT3 = biological target: T12, hFLT3 (Homo sapiens, UniProt P36888); test: KINOMEscan; assay type: binding
T12 construct: purchased DiscoverX

hINSR = biological target: T13, hINSR (Homo sapiens, UniProt P06213); test: KINOMEscan; assay type: binding
T13 construct: purchased DiscoverX (KINOMEscan panel)

hJAK1(JH1Dom.-catalytic) = biological target: T14, hJAK1(JH1Dom.-catalytic) (Homo sapiens, UniProt P23458); test: KINOMEscan; assay type: binding
T14 construct: hJAK1(JH1Dom.-catalytic); purchased DiscoverX (KINOMEscan panel)

hMARK1 = biological target: T15, hMARK1 (Homo sapiens, UniProt Q9P0L2); test: KINOMEscan; assay type: binding
T15 construct: purchased DiscoverX

hMLCK = biological target: T16, hMLCK (Homo sapiens, UniProt Q32MK0); test: KINOMEscan; assay type: binding
T16 construct: purchased DiscoverX

hSgK110 = biological target: T17, hSgK110 (Homo sapiens, UniProt P0C264); test: KINOMEscan; assay type: binding
T17 construct: purchased DiscoverX (KINOMEscan platform)

hSRMS = biological target: T18, hSRMS (Homo sapiens, UniProt Q9H3Y6); test: KINOMEscan; assay type: binding
T18 construct: purchased DiscoverX (KINOMEscan platform)

hTEC = biological target: T19, hTEC (Homo sapiens, UniProt P42680); test: KINOMEscan; assay type: binding
T19 construct: purchased DiscoverX

hTESK1 = biological target: T20, hTESK1 (Homo sapiens, UniProt Q15569); test: KINOMEscan; assay type: binding
T20 construct: purchased DiscoverX

hTLK1 = biological target: T21, hTLK1 (Homo sapiens, UniProt Q9UKI8); test: KINOMEscan; assay type: binding
T21 construct: purchased DiscoverX

hULK2 = biological target: T22, hULK2 (Homo sapiens, UniProt Q8IYT8); test: KINOMEscan; assay type: binding
T22 construct: purchased DiscoverX

hM2 = biological target: T23, hM2 (Homo sapiens, UniProt P08172); test: β-arrestin Agonist (Eurofins-CEREP); conditions: @ 10 μM
T23 sequence (P08172 1-466): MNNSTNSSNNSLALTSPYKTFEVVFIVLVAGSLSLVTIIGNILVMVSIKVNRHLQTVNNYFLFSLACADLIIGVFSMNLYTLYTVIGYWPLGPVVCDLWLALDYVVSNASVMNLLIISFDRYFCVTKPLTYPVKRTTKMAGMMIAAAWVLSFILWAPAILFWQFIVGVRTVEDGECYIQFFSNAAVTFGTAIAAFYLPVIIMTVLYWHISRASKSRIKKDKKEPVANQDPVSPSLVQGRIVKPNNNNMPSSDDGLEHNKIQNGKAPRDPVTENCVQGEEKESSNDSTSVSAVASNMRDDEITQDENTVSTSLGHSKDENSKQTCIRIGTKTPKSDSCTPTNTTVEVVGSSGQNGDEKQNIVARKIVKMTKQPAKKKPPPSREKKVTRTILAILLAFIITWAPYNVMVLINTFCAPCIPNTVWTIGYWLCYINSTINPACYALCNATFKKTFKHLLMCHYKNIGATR

hM3 = hM3 (Homo sapiens, UniProt P20309); test: Calcium Mobilization Agonist (Eurofins-CEREP); conditions: @ 13.3 μM

T3 sequence (Q14012 whole entry): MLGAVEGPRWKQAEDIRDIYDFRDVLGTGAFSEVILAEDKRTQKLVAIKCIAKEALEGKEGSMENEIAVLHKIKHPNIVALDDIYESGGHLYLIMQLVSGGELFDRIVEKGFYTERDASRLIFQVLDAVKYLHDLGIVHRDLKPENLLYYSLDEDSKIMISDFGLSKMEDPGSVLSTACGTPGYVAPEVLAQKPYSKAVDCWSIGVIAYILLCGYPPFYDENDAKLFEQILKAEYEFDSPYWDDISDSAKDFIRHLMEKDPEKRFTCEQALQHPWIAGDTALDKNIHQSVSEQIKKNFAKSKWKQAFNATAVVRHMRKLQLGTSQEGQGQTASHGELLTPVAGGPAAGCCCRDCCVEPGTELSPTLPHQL
T9 sequence (Q9UF33 23-1036): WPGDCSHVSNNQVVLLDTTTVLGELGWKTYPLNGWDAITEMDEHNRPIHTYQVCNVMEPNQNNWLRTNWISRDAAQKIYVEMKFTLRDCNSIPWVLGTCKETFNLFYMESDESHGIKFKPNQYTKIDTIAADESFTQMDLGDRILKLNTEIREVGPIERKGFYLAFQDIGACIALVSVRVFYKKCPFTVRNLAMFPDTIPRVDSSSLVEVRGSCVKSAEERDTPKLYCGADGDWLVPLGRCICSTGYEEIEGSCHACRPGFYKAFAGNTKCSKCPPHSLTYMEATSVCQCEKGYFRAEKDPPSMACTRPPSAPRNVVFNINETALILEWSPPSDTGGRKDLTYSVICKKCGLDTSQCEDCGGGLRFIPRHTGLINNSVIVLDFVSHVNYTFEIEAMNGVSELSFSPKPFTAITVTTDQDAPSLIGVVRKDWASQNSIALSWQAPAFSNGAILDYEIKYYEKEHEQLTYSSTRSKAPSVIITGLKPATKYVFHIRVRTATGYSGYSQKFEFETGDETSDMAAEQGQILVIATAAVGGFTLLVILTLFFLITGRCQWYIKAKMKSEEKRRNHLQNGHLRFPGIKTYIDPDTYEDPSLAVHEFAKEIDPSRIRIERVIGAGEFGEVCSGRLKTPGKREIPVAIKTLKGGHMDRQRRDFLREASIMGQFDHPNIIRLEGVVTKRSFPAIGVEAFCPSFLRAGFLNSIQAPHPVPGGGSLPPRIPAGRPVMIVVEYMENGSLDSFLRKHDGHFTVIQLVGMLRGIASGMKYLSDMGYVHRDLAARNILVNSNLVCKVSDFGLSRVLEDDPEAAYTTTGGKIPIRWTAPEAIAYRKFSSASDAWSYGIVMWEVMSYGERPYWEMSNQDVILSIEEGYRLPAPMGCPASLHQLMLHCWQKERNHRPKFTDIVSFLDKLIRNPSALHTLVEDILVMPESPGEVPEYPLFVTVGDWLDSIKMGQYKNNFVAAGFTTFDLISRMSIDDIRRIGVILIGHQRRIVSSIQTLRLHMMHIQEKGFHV
T16 sequence (Q32MK0 whole entry): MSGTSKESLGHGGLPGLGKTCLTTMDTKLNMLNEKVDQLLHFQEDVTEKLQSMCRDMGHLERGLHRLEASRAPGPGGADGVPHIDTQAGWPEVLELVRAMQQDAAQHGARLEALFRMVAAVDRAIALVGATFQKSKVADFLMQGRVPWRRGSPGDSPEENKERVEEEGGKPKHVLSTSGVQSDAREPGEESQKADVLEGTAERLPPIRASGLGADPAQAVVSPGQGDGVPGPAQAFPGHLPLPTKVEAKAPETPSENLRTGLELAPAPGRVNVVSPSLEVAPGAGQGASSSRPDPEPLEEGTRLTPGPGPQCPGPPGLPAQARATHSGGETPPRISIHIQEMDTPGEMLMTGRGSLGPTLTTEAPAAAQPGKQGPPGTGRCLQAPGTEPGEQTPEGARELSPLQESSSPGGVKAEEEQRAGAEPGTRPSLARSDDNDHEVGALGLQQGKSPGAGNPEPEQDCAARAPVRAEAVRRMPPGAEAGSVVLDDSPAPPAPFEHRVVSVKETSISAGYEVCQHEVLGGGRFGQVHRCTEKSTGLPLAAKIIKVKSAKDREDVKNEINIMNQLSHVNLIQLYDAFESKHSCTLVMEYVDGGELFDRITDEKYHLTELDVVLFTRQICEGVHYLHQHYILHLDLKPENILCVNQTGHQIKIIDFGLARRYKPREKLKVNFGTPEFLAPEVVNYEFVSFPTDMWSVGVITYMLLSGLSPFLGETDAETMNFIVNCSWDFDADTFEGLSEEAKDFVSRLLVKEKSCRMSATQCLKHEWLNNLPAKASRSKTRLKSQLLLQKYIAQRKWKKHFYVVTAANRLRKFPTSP
T10 sequence (P27361 whole entry): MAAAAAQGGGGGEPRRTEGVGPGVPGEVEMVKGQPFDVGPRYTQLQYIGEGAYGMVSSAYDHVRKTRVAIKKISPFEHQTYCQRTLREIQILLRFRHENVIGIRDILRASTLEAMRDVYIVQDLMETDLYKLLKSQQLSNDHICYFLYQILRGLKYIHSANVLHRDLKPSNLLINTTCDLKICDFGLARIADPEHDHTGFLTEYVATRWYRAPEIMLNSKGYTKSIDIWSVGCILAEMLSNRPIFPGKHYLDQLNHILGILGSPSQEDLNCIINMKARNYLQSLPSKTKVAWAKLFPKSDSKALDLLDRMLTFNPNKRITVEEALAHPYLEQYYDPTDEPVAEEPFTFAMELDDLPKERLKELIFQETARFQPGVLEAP
T13 sequence (P06213 28-1382): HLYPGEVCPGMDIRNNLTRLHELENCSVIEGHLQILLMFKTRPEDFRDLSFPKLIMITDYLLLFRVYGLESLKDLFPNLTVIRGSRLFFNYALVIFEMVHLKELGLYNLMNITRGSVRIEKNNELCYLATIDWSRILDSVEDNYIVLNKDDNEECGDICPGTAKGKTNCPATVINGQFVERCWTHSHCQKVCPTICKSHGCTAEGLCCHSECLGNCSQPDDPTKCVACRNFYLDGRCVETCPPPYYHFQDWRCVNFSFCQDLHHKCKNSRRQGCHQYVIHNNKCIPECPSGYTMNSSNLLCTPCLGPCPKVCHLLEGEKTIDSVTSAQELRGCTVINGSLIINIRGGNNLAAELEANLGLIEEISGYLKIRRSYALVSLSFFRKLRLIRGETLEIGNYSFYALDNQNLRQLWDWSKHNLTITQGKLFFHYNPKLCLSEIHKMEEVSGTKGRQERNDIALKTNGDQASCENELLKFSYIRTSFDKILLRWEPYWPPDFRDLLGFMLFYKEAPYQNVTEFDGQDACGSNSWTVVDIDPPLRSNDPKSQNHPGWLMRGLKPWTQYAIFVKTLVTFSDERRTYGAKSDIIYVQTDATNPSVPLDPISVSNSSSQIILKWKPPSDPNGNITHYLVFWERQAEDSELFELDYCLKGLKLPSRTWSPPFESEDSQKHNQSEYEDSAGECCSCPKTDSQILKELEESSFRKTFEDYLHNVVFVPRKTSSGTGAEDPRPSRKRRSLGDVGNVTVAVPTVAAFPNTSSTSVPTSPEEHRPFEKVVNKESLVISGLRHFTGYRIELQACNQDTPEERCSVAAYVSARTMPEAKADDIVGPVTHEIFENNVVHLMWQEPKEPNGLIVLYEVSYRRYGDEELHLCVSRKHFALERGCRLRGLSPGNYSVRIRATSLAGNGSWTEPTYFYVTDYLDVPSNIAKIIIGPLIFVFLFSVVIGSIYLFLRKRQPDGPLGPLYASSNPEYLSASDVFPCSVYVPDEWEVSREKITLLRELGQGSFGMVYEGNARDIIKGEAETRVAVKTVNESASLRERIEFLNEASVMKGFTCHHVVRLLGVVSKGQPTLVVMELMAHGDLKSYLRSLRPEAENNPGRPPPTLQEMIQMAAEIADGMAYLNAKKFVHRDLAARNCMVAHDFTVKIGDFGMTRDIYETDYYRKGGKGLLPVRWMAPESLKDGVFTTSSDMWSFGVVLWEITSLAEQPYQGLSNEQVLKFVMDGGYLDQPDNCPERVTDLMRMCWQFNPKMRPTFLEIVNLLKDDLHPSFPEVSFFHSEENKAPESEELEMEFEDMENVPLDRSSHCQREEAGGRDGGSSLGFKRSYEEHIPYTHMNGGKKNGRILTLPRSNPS
T8 sequence (P29317 24-976): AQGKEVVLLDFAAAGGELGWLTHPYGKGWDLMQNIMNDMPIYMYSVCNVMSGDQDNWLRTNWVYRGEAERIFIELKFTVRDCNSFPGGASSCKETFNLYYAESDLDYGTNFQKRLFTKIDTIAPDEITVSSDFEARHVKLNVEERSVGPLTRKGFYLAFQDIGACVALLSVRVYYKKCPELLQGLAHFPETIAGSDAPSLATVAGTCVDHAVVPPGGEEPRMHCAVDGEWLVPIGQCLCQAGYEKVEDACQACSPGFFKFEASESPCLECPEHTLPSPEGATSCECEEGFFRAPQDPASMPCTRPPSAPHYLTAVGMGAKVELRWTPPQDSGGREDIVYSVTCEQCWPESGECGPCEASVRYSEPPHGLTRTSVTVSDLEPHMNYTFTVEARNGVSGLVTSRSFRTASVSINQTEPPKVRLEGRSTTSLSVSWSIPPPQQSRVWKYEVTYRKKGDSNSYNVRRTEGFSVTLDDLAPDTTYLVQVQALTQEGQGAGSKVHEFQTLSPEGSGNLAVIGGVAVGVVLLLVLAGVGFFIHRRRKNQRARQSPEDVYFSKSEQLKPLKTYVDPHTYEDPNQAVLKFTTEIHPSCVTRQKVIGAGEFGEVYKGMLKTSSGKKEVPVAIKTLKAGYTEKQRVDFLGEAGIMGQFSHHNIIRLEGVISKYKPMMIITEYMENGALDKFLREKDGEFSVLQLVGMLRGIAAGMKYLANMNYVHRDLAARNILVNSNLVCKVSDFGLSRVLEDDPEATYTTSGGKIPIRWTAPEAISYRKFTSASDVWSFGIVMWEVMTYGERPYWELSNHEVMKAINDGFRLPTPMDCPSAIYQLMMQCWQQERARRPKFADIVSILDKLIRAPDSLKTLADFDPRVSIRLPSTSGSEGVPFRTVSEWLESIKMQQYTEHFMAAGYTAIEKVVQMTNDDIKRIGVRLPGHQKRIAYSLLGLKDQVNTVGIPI

`Cc1cn(CCN2CCN(c3ccccc3-c3cc(C#N)cc(C(=O)NCCCN4CCCC4)c3)CC2)c2ccccc12` [LLY-507, 3-cyano-5-{2-[4-[2-(3-methylindol-1-yl)ethyl]piperazin-1-yl]-phenyl}-N-[(3-pyrrolidin-1-yl)propyl]benzamide] was tested, and the IC50 [1] was less than 1 µM, the IC50 (hABL1(pT315I)) was greater than 20 µM and the IC50 (hALK) was greater than 20 µM. It also gave an IC50 (hCAMK1) greater than 20 µM, an IC50 (hCAMK1D) greater than 20 µM and an IC50 (hCSNK1G2) greater than 20 µM. The IC50 (hCTK) was greater than 20 µM, the IC50 (hDRAK2) was greater than 20 µM and the IC50 (hEPHA2) was greater than 20 µM. It also gave an IC50 (hEPHA6) greater than 20 µM, an IC50 (hERK1) greater than 20 µM and an IC50 (hERK4) greater than 20 µM. The IC50 (hFLT3) was greater than 20 µM, the IC50 (hINSR) was greater than 20 µM and the IC50 (hJAK1(JH1Dom.-catalytic)) was greater than 20 µM. For the same compound, the IC50 (hMARK1) was greater than 20 µM, the IC50 (hMLCK) was greater than 20 µM and the IC50 (hSgK110) was greater than 20 µM. It also gave an IC50 (hSRMS) greater than 20 µM, an IC50 (hTEC) greater than 20 µM and an IC50 (hTESK1) greater than 20 µM. The IC50 (hTLK1) was greater than 20 µM, the IC50 (hULK2) was greater than 20 µM and the “% Effect, Stimulation” value (hM2) was 5.1%. The “% Effect, Stimulation” value (hM3) was -1.4%.
